Assays:
[1] = molecular target: T1, BRAF V600E (Homo sapiens, UniProt P15056, V600E); experiment: BRAF V600E biochemical kinase activity assay (AlphaScreen, biotin-MEK1 substrate); settings: BRAF V600E biochemical inhibitory activity
T1 construct: purchased Upstate Biotechnology

[2] = test system: B9 (HRAS Q61L) cell line; experiment: B9 P-ERK cell activation assay (AlphaScreen); assay type: cell-based, mouse; settings: Mus musculus; P-ERK cell activation, B9; numeric bounds; read-out: Cell activity (EC50 μM) B9_pERK
Summary of the method: (§1)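 Mouse B9 (HRAS-driven skin SCC) or human IPC-298 melanoma cells treated with an 8-point compound titration for one hour at 37° C., then lysed. ERK1/2 phosphorylation at Thr202/Tyr204 read by AlphaScreen with total-ERK and phospho-ERK antibodies.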

[3] = test system: IPC-298 (NRAS Q61L) cell line; experiment: IPC-298 P-ERK cell activation assay (AlphaScreen); assay type: cell-based, human; settings: Homo sapiens; P-ERK cell activation, IPC-298; numeric bounds; read-out: Cell activity (EC50 μM) IPC-298_P-ERK
Summary of the method: as §1

[4] = test system: A375 (BRAF V600E) cell line; experiment: A375 P-ERK inhibition assay (AlphaScreen); assay type: cell-based, human; settings: Homo sapiens, A-375; A375_P-ERK
Summary of the method: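 A375 cells treated with 8-point compound titration for 1 h at 37° C, then lysed. ERK1/2 Thr202/Tyr204 phosphorylation measured by AlphaScreen, using biotinylated total-ERK antibody on donor beads and phospho-specific antibody on acceptor beads.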

T1 sequence (P15056 whole entry V600E): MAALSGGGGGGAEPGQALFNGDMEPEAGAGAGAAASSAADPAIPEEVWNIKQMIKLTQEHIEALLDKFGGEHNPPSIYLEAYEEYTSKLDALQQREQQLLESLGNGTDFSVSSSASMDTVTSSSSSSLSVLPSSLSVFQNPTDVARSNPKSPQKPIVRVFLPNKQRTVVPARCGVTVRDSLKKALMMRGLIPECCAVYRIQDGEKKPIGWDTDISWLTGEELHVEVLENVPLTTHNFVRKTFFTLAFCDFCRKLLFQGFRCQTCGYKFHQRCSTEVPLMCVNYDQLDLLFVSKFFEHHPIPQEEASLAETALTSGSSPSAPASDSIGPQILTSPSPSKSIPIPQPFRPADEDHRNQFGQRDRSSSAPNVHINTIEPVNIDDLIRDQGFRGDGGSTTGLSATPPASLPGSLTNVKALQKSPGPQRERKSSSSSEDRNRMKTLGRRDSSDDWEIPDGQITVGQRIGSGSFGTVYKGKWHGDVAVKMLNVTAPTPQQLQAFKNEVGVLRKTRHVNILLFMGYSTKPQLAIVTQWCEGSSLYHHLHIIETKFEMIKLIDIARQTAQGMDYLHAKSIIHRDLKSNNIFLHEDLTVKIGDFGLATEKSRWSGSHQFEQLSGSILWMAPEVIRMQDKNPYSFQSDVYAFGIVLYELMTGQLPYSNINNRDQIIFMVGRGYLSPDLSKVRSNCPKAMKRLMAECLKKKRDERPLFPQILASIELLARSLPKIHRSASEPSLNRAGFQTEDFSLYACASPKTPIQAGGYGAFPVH

## Cc1ncnc2[nH]cc(C(=O)c3cccc(NS(=O)(=O)N4CCCC4)c3F)c12 [P-2076, N-[2-fluoro-3-(4-methyl-7H-pyrrolo[2,3-d]pyrimidine-5-carbonyl)phenyl]pyrrolidine-1-sulfonamide]
[1]
  IC50: 0.0001 to 1 µM
[2]
  EC50: > 10 µM
[3]
  EC50: > 10 µM
[4]
  IC50: 0.0001 to 1 µM

## O=C(c1cccc(NS(=O)(=O)N2CCCC2)c1F)c1c[nH]c2ncnc(C3CC3)c12 [P-2078, N-[3-(4-cyclopropyl-7H-pyrrolo[2,3-d]pyrimidine-5-carbonyl)-2-fluoro-phenyl]pyrrolidine-1-sulfonamide]
[1]
  IC50: 0.0001 to 1 µM
[2]
  EC50: > 10 µM
[3]
  EC50: > 10 µM
[4]
  IC50: 0.0001 to 1 µM

## CCN(C)S(=O)(=O)Nc1cccc(C(=O)c2c[nH]c3ncnc(N[C@H](C)C4CC4)c23)c1F [P-2079, 4-[[(1R)-1-cyclopropylethyl]amino]-5-[3-[[ethyl(methyl)sulfamoyl]amino]-2-fluoro-benzoyl]-7H-pyrrolo[2,3-d]pyrimidine]
[1]
  IC50: 0.0001 to 1 µM
[2]
  EC50: > 10 µM
[3]
  EC50: > 10 µM
[4]
  IC50: 0.0001 to 1 µM

## CCN(C)S(=O)(=O)Nc1cccc(C(=O)c2c[nH]c3ncnc(N[C@@H](C)C4CC4)c23)c1F [P-2080, 4-[[(1S)-1-cyclopropylethyl]amino]-5-[3-[[ethyl(methyl)sulfamoyl]amino]-2-fluoro-benzoyl]-7H-pyrrolo[2,3-d]pyrimidine]
[1]
  IC50: 0.0001 to 1 µM
[2]
  EC50: > 10 µM
[3]
  EC50: > 10 µM
[4]
  IC50: 0.0001 to 1 µM

## O=C(c1cccc(NS(=O)(=O)N2CCCC2)c1F)c1c[nH]c2ncnc(NC3CCC3)c12 [P-2081, N-[3-[4-(cyclobutylamino)-7H-pyrrolo[2,3-d]pyrimidine-5-carbonyl]-2-fluoro-phenyl]pyrrolidine-1-sulfonamide]
[1]
  IC50: 0.0001 to 1 µM
[2]
  EC50: > 10 µM
[3]
  EC50: > 10 µM
[4]
  IC50: 0.0001 to 1 µM

## O=C(c1cccc(NS(=O)(=O)N2CCCC2)c1F)c1c[nH]c2ncnc(NC[C@@H]3CCCO3)c12 [P-2082, N-[2-fluoro-3-[4-[[(2S)-tetrahydrofuran-2-yl]methylamino]-7H-pyrrolo[2,3-d]pyrimidine-5-carbonyl]phenyl]pyrrolidine-1-sulfonamide]
[1]
  IC50: 0.0001 to 1 µM
[2]
  EC50: > 10 µM
[3]
  EC50: > 10 µM
[4]
  IC50: 0.0001 to 1 µM

## O=C(c1cccc(NS(=O)(=O)N2CCCC2)c1F)c1c[nH]c2ncnc(NC3CCOCC3)c12 [P-2083, N-[2-fluoro-3-[4-(tetrahydropyran-4-ylamino)-7H-pyrrolo[2,3-d]pyrimidine-5-carbonyl]phenyl]pyrrolidine-1-sulfonamide]
[1]
  IC50: 0.0001 to 1 µM
[2]
  EC50: > 10 µM
[3]
  EC50: > 10 µM
[4]
  IC50: 0.0001 to 1 µM

## COc1ncnc2[nH]cc(C(=O)c3cccc(NS(=O)(=O)N4CCCC4)c3F)c12 [P-2084, N-[2-fluoro-3-(4-methoxy-7H-pyrrolo[2,3-d]pyrimidine-5-carbonyl)phenyl]pyrrolidine-1-sulfonamide]
[1]
  IC50: 0.0001 to 1 µM
[2]
  EC50: > 10 µM
[3]
  EC50: > 10 µM
[4]
  IC50: 0.0001 to 1 µM

## CCN(C)S(=O)(=O)Nc1cccc(-c2nc(C(C)(C)C)sc2-c2ccnc(Cl)n2)c1F [P-2085, 2-tert-butyl-5-(2-chloropyrimidin-4-yl)-4-[3-[[ethyl(methyl)sulfamoyl]amino]-2-fluoro-phenyl]thiazole]
[1]
  IC50: 1 to 10 µM
[2]
  EC50: > 10 µM
[3]
  EC50: > 10 µM
[4]
  IC50: 0.0001 to 1 µM

## CCCN(C)S(=O)(=O)Nc1cccc(C(=O)c2c[nH]c3ncnc(C)c23)c1F [P-2086, 5-[2-fluoro-3-[[methyl(propyl)sulfamoyl]amino]benzoyl]-4-methyl-7H-pyrrolo[2,3-d]pyrimidine]
[1]
  IC50: 0.0001 to 1 µM
[2]
  EC50: > 10 µM
[3]
  EC50: > 10 µM
[4]
  IC50: 0.0001 to 1 µM

## CCCN(C)S(=O)(=O)Nc1cccc(C(=O)c2c[nH]c3ncnc(C4CC4)c23)c1F [P-2087, 4-cyclopropyl-5-[2-fluoro-3-[[methyl(propyl)sulfamoyl]amino]benzoyl]-7H-pyrrolo[2,3-d]pyrimidine]
[1]
  IC50: 0.0001 to 1 µM
[2]
  EC50: > 10 µM
[3]
  EC50: > 10 µM
[4]
  IC50: 1 to 10 µM

## CCN(C)S(=O)(=O)Nc1cccc(-c2nc(C(C)(C)C)sc2-c2ccnc(OC)n2)c1F [P-2088, 2-tert-butyl-4-[3-[[ethyl(methyl)sulfamoyl]amino]-2-fluoro-phenyl]-5-(2-methoxypyrimidin-4-yl)thiazole]
[1]
  IC50: 0.0001 to 1 µM
[2]
  EC50: > 10 µM
[3]
  EC50: > 10 µM
[4]
  IC50: 0.0001 to 1 µM

## CCN(C)S(=O)(=O)Nc1cccc(-c2nc(C(C)(C)C)sc2-c2ccnc(N)n2)c1F [P-2089, 5-(2-aminopyrimidin-4-yl)-2-tert-butyl-4-[3-[[ethyl(methyl)sulfamoyl]amino]-2-fluoro-phenyl]thiazole]
[1]
  IC50: 0.0001 to 1 µM
[2]
  EC50: > 1 µM
[3]
  EC50: > 1 µM
[4]
  IC50: 0.0001 to 1 µM

## CCN(C)S(=O)(=O)Nc1cccc(C(=O)c2c[nH]c3ncnc(C)c23)c1F [P-2090, 5-[3-[[ethyl(methyl)sulfamoyl]amino]-2-fluoro-benzoyl]-4-methyl-7H-pyrrolo[2,3-d]pyrimidine]
[1]
  IC50: 0.0001 to 1 µM
[2]
  EC50: > 10 µM
[3]
  EC50: > 10 µM
[4]
  IC50: 0.0001 to 1 µM

## CCN(C)S(=O)(=O)Nc1cccc(C(=O)c2c[nH]c3ncnc(C4CC4)c23)c1F [P-2091, 4-cyclopropyl-5-[3-[[ethyl(methyl)sulfamoyl]amino]-2-fluoro-benzoyl]-7H-pyrrolo[2,3-d]pyrimidine]
[1]
  IC50: 0.0001 to 1 µM
[2]
  EC50: > 10 µM
[3]
  EC50: > 10 µM
[4]
  IC50: 0.0001 to 1 µM

## CCN(C)S(=O)(=O)Nc1cccc(C(=O)c2c[nH]c3ncnc(OC)c23)c1F [P-2092, 5-[3-[[ethyl(methyl)sulfamoyl]amino]-2-fluoro-benzoyl]-4-methoxy-7H-pyrrolo[2,3-d]pyrimidine]
[1]
  IC50: 0.0001 to 1 µM
[2]
  EC50: > 10 µM
[3]
  EC50: > 10 µM
[4]
  IC50: 0.0001 to 1 µM

## CN(C)S(=O)(=O)Nc1cccc(-c2nc(C(C)(C)C)sc2-c2ccnc(N)n2)c1F [P-2093, 5-(2-aminopyrimidin-4-yl)-2-tert-butyl-4-[3-(dimethylsulfamoylamino)-2-fluoro-phenyl]thiazole]
[1]
  IC50: 0.0001 to 1 µM
[2]
  EC50: > 1 µM
[3]
  EC50: > 1 µM
[4]
  IC50: 0.0001 to 1 µM

## C[C@@H](Nc1ncnc2[nH]cc(C(=O)c3cccc(NS(=O)(=O)N4CCCC4)c3F)c12)C1CC1 [P-2094, N-[3-[4-[[(1R)-1-cyclopropylethyl]amino]-7H-pyrrolo[2,3-d]pyrimidine-5-carbonyl]-2-fluoro-phenyl]pyrrolidine-1-sulfonamide]
[1]
  IC50: 0.0001 to 1 µM
[2]
  EC50: > 10 µM
[3]
  EC50: > 10 µM
[4]
  IC50: 0.0001 to 1 µM

## O=C(c1cccc(NS(=O)(=O)N2CCCC2)c1F)c1c[nH]c2ncnc(NCC(O)CO)c12 (centres unmarked) [P-2096, N-[3-[4-(2,3-dihydroxypropylamino)-7H-pyrrolo[2,3-d]pyrimidine-5-carbonyl]-2-fluoro-phenyl]pyrrolidine-1-sulfonamide]
[1]
  IC50: 0.0001 to 1 µM
[2]
  EC50: > 10 µM
[3]
  EC50: > 10 µM
[4]
  IC50: > 10 µM

## O=C(c1cccc(NS(=O)(=O)N2CCCC2)c1F)c1c[nH]c2ncnc(NC3(C(=O)O)CC3)c12 [P-2097, 1-[[5-[2-fluoro-3-(pyrrolidin-1-ylsulfonylamino)benzoyl]-7H-pyrrolo[2,3-d]pyrimidin-4-yl]amino]cyclopropanecarboxylic acid]
[1]
  IC50: 1 to 10 µM
[2]
  EC50: > 10 µM
[3]
  EC50: > 10 µM
[4]
  IC50: > 10 µM

## O=C(c1cccc(NS(=O)(=O)N2CCCC2)c1F)c1c[nH]c2ncnc(NCC3CC(O)C3)c12 (centres unmarked) [P-2098, N-[2-fluoro-3-[4-[(3-hydroxycyclobutyl)methylamino]-7H-pyrrolo[2,3-d]pyrimidine-5-carbonyl]phenyl]pyrrolidine-1-sulfonamide]
[1]
  IC50: 0.0001 to 1 µM
[2]
  EC50: > 10 µM
[3]
  EC50: > 10 µM
[4]
  IC50: 0.0001 to 1 µM

## CCCNc1ncnc2[nH]cc(C(=O)c3c(F)ccc(NS(=O)(=O)N(C)CC)c3F)c12 [P-2099, 5-[3-[[ethyl(methyl)sulfamoyl]amino]-2,6-difluoro-benzoyl]-4-(propylamino)-7H-pyrrolo[2,3-d]pyrimidine]
[1]
  IC50: 0.0001 to 1 µM
[2]
  EC50: > 10 µM
[3]
  EC50: > 10 µM
[4]
  IC50: 0.0001 to 1 µM

## CCN(C)S(=O)(=O)Nc1ccc(F)c(C(=O)c2c[nH]c3ncnc(NCCOC)c23)c1F [P-2100, 5-[3-[[ethyl(methyl)sulfamoyl]amino]-2,6-difluoro-benzoyl]-4-(2-methoxyethylamino)-7H-pyrrolo[2,3-d]pyrimidine]
[1]
  IC50: 0.0001 to 1 µM
[2]
  EC50: > 10 µM
[3]
  EC50: > 10 µM
[4]
  IC50: 0.0001 to 1 µM

## CCN(C)S(=O)(=O)Nc1ccc(F)c(C(=O)c2c[nH]c3ncnc(NC4CCC4)c23)c1F [P-2101, 4-(cyclobutylamino)-5-[3-[[ethyl(methyl)sulfamoyl]amino]-2,6-difluoro-benzoyl]-7H-pyrrolo[2,3-d]pyrimidine]
[1]
  IC50: 0.0001 to 1 µM
[2]
  EC50: > 10 µM
[3]
  EC50: > 10 µM
[4]
  IC50: 0.0001 to 1 µM

## NCCNc1ncnc2[nH]cc(C(=O)c3cccc(NS(=O)(=O)N4CCCC4)c3F)c12 [P-2102, N-[3-[4-(2-aminoethylamino)-7H-pyrrolo[2,3-d]pyrimidine-5-carbonyl]-2-fluoro-phenyl]pyrrolidine-1-sulfonamide]
[1]
  IC50: 0.0001 to 1 µM
[2]
  EC50: > 10 µM
[3]
  EC50: > 10 µM
[4]
  IC50: 1 to 10 µM

## CCOC(=O)CNc1ncnc2[nH]cc(C(=O)c3cccc(NS(=O)(=O)N4CCCC4)c3F)c12 [P-2103, ethyl 2-[[5-[2-fluoro-3-(pyrrolidin-1-ylsulfonylamino)benzoyl]-7H-pyrrolo[2,3-d]pyrimidin-4-yl]amino]acetate]
[1]
  IC50: 0.0001 to 1 µM
[2]
  EC50: > 10 µM
[3]
  EC50: > 10 µM
[4]
  IC50: 0.0001 to 1 µM

Reference: patent publication US10421761B2, “Compounds for kinase modulation, and indications therefor” (Plexxikon Inc., priority 2013, dated 2019)
